Data published in patent US20120108629A1, “New use of neferine” (Institute of Chinese Materia Medica, China Academy, priority 2009, published 2012).

Key:
breast cancer cells = experiment: Inhibition on proliferation of human cancer cells, breast cancer cells; assay type: cell-based
From the text: (§1) Inhibition on proliferation of human cancer cells: It is reported that the drugs that up-regulate TRPM8 or down-regulate TRPV1 can inhibit proliferation of breast cancer. To further investigate whether neferine follow the same way, human breast cancer cell line MDA-MB-231 and MDA-MB-453 as well as cancer gene-containing human breast gland epithelial cell line MCF10A-Myc and human pancreatic cancer cell line MIAPaCa-2 were employed and cultured in DMEM or DMEM/F12 medium with epithelial growth factor in vitro. After incubation with various concentrations of test agents for 72 h, the effective concentration of them for inhibiting the tumor cells was assayed according to the common method in the art.
(§2) According to the “Inhibition on proliferation of human cancer cells” described above, the effective concentrations of neferine for the inhibition of tumors were obtained (table 11).

[1] = test system: Cancer gene-containing human breast epithelial cell line MCF10A-Myc; experiment: Inhibition on proliferation, MCF10A-Myc; assay type: cell-based; conditions: 72 h incubation
From the text: as §1, §2

[2] = test system: Human breast cancer cell line MDA-MB-231; experiment: Inhibition on proliferation of human cancer cells, MDA-MB-231; assay type: cell-based; conditions: MDA-MB-231, 72 h incubation
From the text: as §1, §2

TRPV1 [3] = target: TRPV1 (Rattus norvegicus, UniProt O35433); experiment: Intracellular calcium change in DRG cells, Fluo-4 fluorescence (Examples 9-11, Tables 9-11); assay type: cell-based
Sequence of TRPV1 (Rattus norvegicus, UniProt O35433) (O35433 whole entry): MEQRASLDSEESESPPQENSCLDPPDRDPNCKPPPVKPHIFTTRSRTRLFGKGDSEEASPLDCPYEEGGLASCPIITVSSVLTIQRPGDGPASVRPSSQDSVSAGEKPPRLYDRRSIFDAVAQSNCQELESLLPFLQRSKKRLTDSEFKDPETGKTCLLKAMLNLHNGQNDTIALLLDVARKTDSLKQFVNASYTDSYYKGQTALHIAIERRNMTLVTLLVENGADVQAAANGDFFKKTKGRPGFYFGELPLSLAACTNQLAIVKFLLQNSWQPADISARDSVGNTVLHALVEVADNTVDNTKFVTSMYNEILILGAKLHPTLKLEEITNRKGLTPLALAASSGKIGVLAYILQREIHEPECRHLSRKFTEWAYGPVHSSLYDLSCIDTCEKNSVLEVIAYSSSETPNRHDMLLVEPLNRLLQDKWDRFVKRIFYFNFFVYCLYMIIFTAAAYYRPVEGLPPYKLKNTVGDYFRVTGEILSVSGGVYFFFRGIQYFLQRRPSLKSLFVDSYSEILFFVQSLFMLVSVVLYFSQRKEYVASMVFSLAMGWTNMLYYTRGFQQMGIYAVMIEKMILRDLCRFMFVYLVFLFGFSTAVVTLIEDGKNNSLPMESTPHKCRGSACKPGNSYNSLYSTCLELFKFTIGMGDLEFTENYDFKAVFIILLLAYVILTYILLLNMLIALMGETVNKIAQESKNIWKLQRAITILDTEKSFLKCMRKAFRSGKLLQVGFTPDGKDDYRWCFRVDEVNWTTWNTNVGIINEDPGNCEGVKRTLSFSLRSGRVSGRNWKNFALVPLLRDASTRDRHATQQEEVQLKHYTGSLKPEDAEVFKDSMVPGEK
Description: (§3) Detection of intracellular calcium concentrations of DRG cells: DRG cells cultured under normal, low and high temperature conditions was obtained. The medium was discarded and the cells were washed after certain time. 0.1%F-127, 5 μM of Fluo-4-AM, M fluorescent dye were added and loaded at 25° C. out of light for 30 min. After dye loading, the redundant dye was washed out and buffer and test compounds were added respectively. The cells were put in a closed chamber on a microscope stage. Fluorescence dyed cells were detected with appropriate conditions. The change of fluorescence intensity in each cell was determined and the data were analyzed by software. The change of the intracellular calcium concentration was indicated by fluorescence intensity. The change degree of the intracellular calcium concentration was represented by the percent ratio of the change value of fluorescence intensity before and after administration and the value of fluorescence intensity before administration (Δ[Ca2+]i), i.e. Δ[Ca2+]i=(fluorescence intensity value after administration F-fluorescence intensity value before administration F0)/fluorescence intensity value before administration F0×100%. The change of the intracellular calcium concentration indicated the function of TRP.
(§4) The medium was discarded and the fluorescent dye was added and loaded for 30 min. The change of fluorescence intensity in cell was determined in a closed chamber on a microscope stage and the change of the intracellular calcium concentration was assayed.
as §4
(this is the appropriate stimulation time for the intracellular calcium change after stimulation under 19° C., and the experiment data was not shown). The medium was discarded and the fluorescent dye was added and loaded for 30 min.

TRPV1 mRNA = TRPV1 mRNA expression in DRG cells by real-time PCR; assay type: cell-based, rat; conditions: for TRPV1 mRNA expression (2^−ΔΔCT): 37° C. 24 h
[4] = test system: Human breast cancer cell line MDA-MB-453; experiment: Inhibition on proliferation of human cancer cells, MDA-MB-453; assay type: cell-based; conditions: MDA-MB-453, 72 h incubation
From the text: as §1, §2

[5] = test system: Human pancreas cancer cell line MIAPaCa-2; experiment: Inhibition on proliferation of human cancer cells, MIAPaCa-2; assay type: cell-based
From the text: as §1, §2

TRPV1 [6] = experiment: Intracellular calcium change in DRG cells, Fluo-4 fluorescence (Examples 4-5, Tables 4-5); assay type: cell-based, rat
Description: as §3, §4, §4

TRPM8 mRNA = TRPM8 mRNA expression in DRG cells by real-time PCR; conditions: for Effect on TRPM8 mRNA expression (in words) / TRPM8 mRNA expression (2^−ΔΔCT): DRG cells
Description: DRG were aseptically removed and meticulously cleaned the rootlets and connective tissue. The tissue was digested with collagenase and trypsin in succession, and then centrifuged and the digestive liquid was discarded. Cells were prepared into single cell suspension in common culture medium, and then calculated and adjusted to 10^5 nerve cells per ml. It was incubated in culture plates pre-coated with laminin at 37° C. in 5% CO2 for 48 hours. Camptothecine was used to inhibit proliferation of other cells. Culture was continued to obtain DRG cells with a high purity (>98%).
Detection of TRPM8 and TRPV1 mRNA expression: The total RNA of the DRG neuronal cells was extracted in a routine way, after exposure to the tested agents of various concentrations under the normal, low and high temperature conditions respectively. The concentration of RNA was measured and its cDNA was prepared. The desired amount of resulting cDNA and TRPM8 or TRPV1 gene primers were added on the IQ5-Type real-time IQ5-Type real-time PCR meter with GAPDH as the endogenous control to perform extension. Melting curves were generated. Relative gene expression was calculated using the comparative threshold cycle (2-^ΔΔCT) method with the calculated formula as following:
ΔΔCt=(Ct,Target-Ct,GAPDH)x-(Ct,Target-Ct,GAPDH)Control
X represents any one of tested, Control represents double target gene expression after GAPDH correction.
The purified culture medium of DRG cells was added with three different concentrations of test compounds and cultured at 37° C. in 5% CO2 for 24 h. The total RNA was extracted immediately after culture. The TRPM8 agonist hexahydrothymol was positive control group and the normal culture medium was vehicle control group. Then the real-time PCR amplification was performed and TRPM8 mRNA was determined.
The purified culture medium of DRG cells was added with three different concentrations of test compounds and cultured at 37° C. in 5% CO2 for 23 h followed by 39° C. in 5% CO2 for 1 h. The total RNA was extracted immediately after culture. The TRPM8 agonist hexahydrothymol was positive control group and the normal culture medium was vehicle control group. Then the real-time PCR amplification was performed and TRPM8 mRNA was determined.
The purified culture medium of DRG cells was added with three different concentrations of test compounds and cultured at 37° C. in 5% CO2 for 22 h followed by 19° C. in 5% CO2 for 2 h. The total RNA was extracted immediately after culture. The TRPM8 agonist hexahydrothymol was positive control group and the normal culture medium was vehicle control group. Then the real-time PCR amplification was performed and TRPM8 mRNA was determined.

[7] = 37° C. 22 h then 19° C. 2 h, 2.5 μmol/L
[8] = 37° C. 22 h then 19° C. 2 h, 5 μmol/L
[9] = 37° C. 22 h then 19° C. 2 h, 10 μmol/L
[10] = 37° C. 23 h then 39° C. 1 h, 2.5 μmol/L
[11] = 37° C. 23 h then 39° C. 1 h, 5 μmol/L
[12] = 37° C. 23 h then 39° C. 1 h, 10 μmol/L

neferine
inhibition concentration on breast cancer cells (breast cancer cells): below 2.1 μg/ml
Inhibition concentration [1]: 5.95 µg/mL
Inhibition concentration [2]: 1.30 µg/mL
Effect on intracellular calcium concentration (in words) (TRPV1 [3]; Example 9, DRG cells, 37° C.): decrease the concentration of intracellular calcium dose-dependently
correlation coefficient of dose dependence, intracellular calcium (TRPV1 [3]; Example 9, DRG cells, 37° C.): −0.85
Effect on intracellular calcium concentration (in words) (TRPV1 [3]; Example 10, DRG cells, 39° C.): inhibit the change of the intracellular calcium concentration dose-dependently
correlation coefficient of dose dependence, intracellular calcium (TRPV1 [3]; Example 10, DRG cells, 39° C.): −0.815
Effect on intracellular calcium concentration (in words) (TRPV1 [3]; Example 11, DRG cells, 19° C.): further inhibit the change of the intracellular calcium concentration dose-dependently
correlation coefficient of dose dependence, intracellular calcium (TRPV1 [3]; Example 11, DRG cells, 19° C.): −0.99
Intracellular Calcium changes [(F1 − F0)/F0/%] (TRPV1 [3]; Table 9, DRG cells, 37° C. 24 h, 2.5 μmol/L): 98.15 ± 10.71%
Intracellular Calcium changes [(F1 − F0)/F0/%] (TRPV1 [3]; Table 9, DRG cells, 37° C. 24 h, 5 μmol/L): 98.64 ± 12.77%
Intracellular Calcium changes [(F1 − F0)/F0/%] (TRPV1 [3]; Table 9, DRG cells, 37° C. 24 h, 10 μmol/L): 96.33 ± 8.96%
Intracellular Calcium changes [(F1 − F0)/F0/%] (TRPV1 [3]; Table 10, DRG cells, 37° C. 22 h then 39° C. 2 h, 2.5 μmol/L): 128.63 ± 14.40%
Intracellular Calcium changes [(F1 − F0)/F0/%] (TRPV1 [3]; Table 10, DRG cells, 37° C. 22 h then 39° C. 2 h, 5 μmol/L): 120.51 ± 11.29%
Intracellular Calcium changes [(F1 − F0)/F0/%] (TRPV1 [3]; Table 10, DRG cells, 37° C. 22 h then 39° C. 2 h, 10 μmol/L): 119.49 ± 11.21%
Intracellular Calcium changes [(F1 − F0)/F0/%] (TRPV1 [3]; Table 11, DRG cells, 37° C. 21 h then 19° C. 3 h, 2.5 μmol/L): 99.71 ± 10.96%
Intracellular Calcium changes [(F1 − F0)/F0/%] (TRPV1 [3]; Table 11, DRG cells, 37° C. 21 h then 19° C. 3 h, 5 μmol/L): 98.30 ± 11.89%
Intracellular Calcium changes [(F1 − F0)/F0/%] (TRPV1 [3]; Table 11, DRG cells, 37° C. 21 h then 19° C. 3 h, 10 μmol/L): 93.02 ± 10.54%
Effect on TRPV1 mRNA expression (in words) (TRPV1 mRNA; 19° C.): further inhibit expression levels of TRPV1 mRNA dose-dependently
TRP V1 mRNA expression(2^−ΔΔCT) (TRPV1 mRNA; [7]): 0.54 ± 0.17
TRP V1 mRNA expression(2^−ΔΔCT) (TRPV1 mRNA; [8]): 0.47 ± 0.20
TRP V1 mRNA expression(2^−ΔΔCT) (TRPV1 mRNA; [9]): 0.45 ± 0.23
TRP V1 mRNA expression(2^−ΔΔCT) (TRPV1 mRNA; [10]): 4.16 ± 0.71
TRP V1 mRNA expression(2^−ΔΔCT) (TRPV1 mRNA; [11]): 3.70 ± 0.69
TRP V1 mRNA expression(2^−ΔΔCT) (TRPV1 mRNA; [12]): 3.13 ± 0.51
TRPV1 mRNA expression (2^−ΔΔCT) (TRPV1 mRNA; 2.5 μmol): 0.96 ± 0.41
TRPV1 mRNA expression (2^−ΔΔCT) (TRPV1 mRNA; 5 μmol): 1.09 ± 0.30
TRPV1 mRNA expression (2^−ΔΔCT) (TRPV1 mRNA; 10 μmol): 1.04 ± 0.43
Effect on TRPV1 mRNA expression (in words) (TRPV1 mRNA; 37° C., under the test concentrations): could not change expression levels of TRPV1 mRNA
Effect on TRPV1 mRNA expression (in words) (TRPV1 mRNA; 39° C.): decrease the expression levels of TRPV1 mRNA dose-dependently
Inhibition concentration [4]: 2.05 µg/mL
Inhibition concentration ([5]; MIAPaCa-2, 72 h incubation): 3.64 µg/mL
inhibition concentration for pancreas ([5]; pancreas cancer cells): below 4 μg/ml
Effect on intracellular calcium concentration (in words) (TRPV1 [6]; Example 4, DRG cells, 37° C.): increase the intracellular calcium concentration dose-dependently
Intracellular Calcium changes [(F1 − F0)/F0/%] (TRPV1 [6]; Table 4, DRG cells, 37° C. 24 h, 2.5 μmol/L): 121.41 ± 10.05%
Intracellular Calcium changes [(F1 − F0)/F0/%] (TRPV1 [6]; Table 4, DRG cells, 37° C. 24 h, 5 μmol/L): 128.16 ± 11.48%
Intracellular Calcium changes [(F1 − F0)/F0/%] (TRPV1 [6]; Table 4, DRG cells, 37° C. 24 h, 10 μmol/L): 132.07 ± 19.30 %
Intracellular Calcium changes [(F1 − F0)/F0/%] (TRPV1 [6]; Table 5, DRG cells, 37° C. 22 h then 39° C. 2 h, 2.5 μmol/L): 107.88 ± 13.07%
Intracellular Calcium changes [(F1 − F0)/F0/%] (TRPV1 [6]; Table 5, DRG cells, 37° C. 22 h then 39° C. 2 h, 5 μmol/L): 108.09 ± 12.85%
Intracellular Calcium changes [(F1 − F0)/F0/%] (TRPV1 [6]; Table 5, DRG cells, 37° C. 22 h then 39° C. 2 h, 10 μmol/L): 112.72 ± 11.74 %
Effect on TRPM8 mRNA expression (in words) (TRPM8 mRNA; 19° C.): up-regulate the expression levels of TRPM8 mRNA dose-dependently
Effect on TRPM8 mRNA expression (in words) (TRPM8 mRNA; 37° C.): up-regulate the expression levels of TRPM8 mRNA dose-dependently
TRPM8 mRNA expression (2^−ΔΔCT) (TRPM8 mRNA; [7]): 3.25 ± 0.65
TRPM8 mRNA expression (2^−ΔΔCT) (TRPM8 mRNA; [8]): 3.37 ± 0.87
TRPM8 mRNA expression (2^−ΔΔCT) (TRPM8 mRNA; [9]): 3.49 ± 0.82
TRPM8 mRNA expression (2^−ΔΔCT) (TRPM8 mRNA; [10]): 0.74 ± 0.23
TRPM8 mRNA expression (2^−ΔΔCT) (TRPM8 mRNA; [11]): 0.78 ± 0.33
TRPM8 mRNA expression (2^−ΔΔCT) (TRPM8 mRNA; [12]): 0.79 ± 0.24
TRPM8 mRNA expression (2^−ΔΔCT) (TRPM8 mRNA; 37° C. 24 h, 2.5 μmol/L): 1.10 ± 0.27
TRPM8 mRNA expression (2^−ΔΔCT) (TRPM8 mRNA; 37° C. 24 h, 5 μmol/L): 1.14 ± 0.31
TRPM8 mRNA expression (2^−ΔΔCT) (TRPM8 mRNA; 37° C. 24 h, 10 μmol/L): 1.28 ± 0.27
Effect on TRPM8 mRNA expression (in words) (TRPM8 mRNA; 39° C.): did not up-regulate TRPM8 mRNA expression
Effect compared with the agonist hexahydrothymol (in words) (TRPM8 mRNA; general statement on TRPM8): stronger effect than hexahydrothymol
